Experimental data taken from patent publication US9670212B2, “Inhibitors of PI3K-delta and methods of their use and manufacture” (Exelixis, Inc., priority 2010, dated 2017).

Biological target: PI3K delta (Homo sapiens (Human), UniProt O00329)
Assay: Luciferase-coupled chemiluminescence kinase assay (KinaseGlo, ATP consumption)
Format: biochemical
Experimental: Kinase activity and compound inhibition were investigated using one or more of the assay formats described below. The ATP concentrations used in the various assays were approximately equal to or less than the KM for each of the respective kinases. Dose-response experiments were performed using an intra-plate dilution scheme with 10 different inhibitor concentrations in a 384-well microtiter plate. […] Typically N should approximate unity. Curve fitting was performed using XLFit or ActivityBase. Luciferase-Coupled Chemiluminescence Assay Protocol
Kinase activity is measured as the percent of ATP consumed following the kinase reaction using luciferase-luciferin-coupled chemiluminescence. […] Kinase reactions were initiated by combining test compounds, kinase, and ATP in a 20 μL volume (6 μL volume for 1536-well plate). The reaction mixture was incubated at ambient temperature for 2 h. Following the kinase reaction, a 20 μL (or 3 μL for 1536-well plate) aliquot of KinaseGlo (Promega) was added and the chemiluminescence signal measured using an EnVision plate reader (Perkin Elmer).

PI3K delta, sequence (O00329 whole entry): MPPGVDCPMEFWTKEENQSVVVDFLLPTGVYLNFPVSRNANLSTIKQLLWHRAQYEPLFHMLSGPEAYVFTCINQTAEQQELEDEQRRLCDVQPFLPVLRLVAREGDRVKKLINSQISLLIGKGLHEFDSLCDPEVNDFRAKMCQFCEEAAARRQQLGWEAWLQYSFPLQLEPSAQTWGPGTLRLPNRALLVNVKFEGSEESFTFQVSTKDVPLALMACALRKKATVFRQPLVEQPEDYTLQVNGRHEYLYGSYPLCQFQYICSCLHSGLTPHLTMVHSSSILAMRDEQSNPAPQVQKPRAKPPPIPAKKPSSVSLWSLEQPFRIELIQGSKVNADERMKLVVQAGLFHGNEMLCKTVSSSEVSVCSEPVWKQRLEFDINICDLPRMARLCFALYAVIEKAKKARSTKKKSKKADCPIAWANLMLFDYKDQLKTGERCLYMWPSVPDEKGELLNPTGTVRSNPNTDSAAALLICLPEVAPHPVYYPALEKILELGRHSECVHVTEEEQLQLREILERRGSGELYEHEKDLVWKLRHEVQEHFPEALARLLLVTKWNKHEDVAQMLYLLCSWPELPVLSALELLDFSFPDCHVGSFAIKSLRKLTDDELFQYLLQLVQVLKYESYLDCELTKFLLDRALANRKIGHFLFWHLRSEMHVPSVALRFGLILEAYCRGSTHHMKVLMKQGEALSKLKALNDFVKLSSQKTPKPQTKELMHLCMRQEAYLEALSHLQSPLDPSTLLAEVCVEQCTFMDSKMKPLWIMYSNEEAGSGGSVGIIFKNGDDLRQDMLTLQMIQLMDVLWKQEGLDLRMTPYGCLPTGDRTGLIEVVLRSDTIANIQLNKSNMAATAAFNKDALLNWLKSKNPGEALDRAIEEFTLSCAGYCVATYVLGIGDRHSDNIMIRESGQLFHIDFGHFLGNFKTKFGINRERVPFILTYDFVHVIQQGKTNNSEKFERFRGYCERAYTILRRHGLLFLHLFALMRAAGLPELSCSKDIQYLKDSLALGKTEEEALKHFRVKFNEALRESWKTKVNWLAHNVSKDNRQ
PI3K delta, sequence (P27986 whole entry partner): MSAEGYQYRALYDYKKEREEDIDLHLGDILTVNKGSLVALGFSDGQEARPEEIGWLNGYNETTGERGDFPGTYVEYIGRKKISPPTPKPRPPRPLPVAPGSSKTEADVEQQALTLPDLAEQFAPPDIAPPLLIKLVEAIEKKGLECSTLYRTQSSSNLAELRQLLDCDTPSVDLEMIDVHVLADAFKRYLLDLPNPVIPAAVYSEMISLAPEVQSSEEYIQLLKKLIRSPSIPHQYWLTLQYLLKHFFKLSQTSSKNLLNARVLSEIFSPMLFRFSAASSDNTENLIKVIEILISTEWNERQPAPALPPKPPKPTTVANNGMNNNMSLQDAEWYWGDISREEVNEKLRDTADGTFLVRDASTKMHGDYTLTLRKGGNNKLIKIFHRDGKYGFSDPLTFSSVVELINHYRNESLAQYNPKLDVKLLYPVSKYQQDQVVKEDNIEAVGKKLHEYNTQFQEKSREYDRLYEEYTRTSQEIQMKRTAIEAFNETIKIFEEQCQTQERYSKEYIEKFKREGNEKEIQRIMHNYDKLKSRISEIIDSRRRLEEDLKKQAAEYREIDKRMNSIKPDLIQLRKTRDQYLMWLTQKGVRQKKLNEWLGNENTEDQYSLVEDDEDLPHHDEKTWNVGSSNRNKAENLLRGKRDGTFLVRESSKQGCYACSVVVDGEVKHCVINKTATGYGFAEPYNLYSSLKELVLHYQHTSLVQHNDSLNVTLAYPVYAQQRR

First: Cc1cccc2cc(CNC(=O)c3nccnc3N)c(N3CCC(NC(=O)Cn4ccnn4)C3)nc12 (stereo not drawn) [Compound 45, 3-amino-N-[(8-methyl-2-{3-[(1H-1,2,3-triazol-1-ylacetyl)amino]pyrrolidin-1-yl}quinolin-3-yl)methyl]pyrazine-2-carboxamide]
Second: Cc1cccc2cc(CNC(=O)c3nccnc3N)c(N3CCCN(C(=O)Cn4ccnn4)CC3)nc12 [Compound 60, 3-amino-N-({8-methyl-2-[4-(1H-1,2,3-triazol-1-ylacetyl)-1,4-diazepan-1-yl]quinolin-3-yl}methyl)pyrazine-2-carboxamide]
The IC50 of the first is higher: 0.5 to 1.5 µM for the first, 0.25 to 0.5 µM for the second. The second is the more potent here.

First: Cc1cccc2cc(CNC(=O)c3nccnc3N)c(N(Cc3cccnc3)Cc3cccnc3)nc12 [Compound 46, 3-amino-N-({2-[bis(pyridin-3-ylmethyl)amino]-8-methylquinolin-3-yl}methyl)pyrazine-2-carboxamide]
Second: Cc1cccc2cc(CNC(=O)c3nccnc3N)c(N(Cc3ccccn3)Cc3ccccn3)nc12 [Compound 47, 3-amino-N-({2-[bis(pyridin-2-ylmethyl)amino]-8-methylquinolin-3-yl}methyl)pyrazine-2-carboxamide]
The IC50 of the first is lower: 0.25 to 0.5 µM for the first, 0.5 to 1.5 µM for the second. The first is the more potent here.

Compared with `Cc1cccc2cc(CNC(=O)c3nccnc3N)c(N(C)CCN(C)C(=O)Cn3cccn3)nc12` [Compound 49, 3-amino-N-{[8-methyl-2-(methyl{2-[methyl(1H-pyrazol-1-ylacetyl)amino]ethyl}amino)quinolin-3-yl]methyl}pyrazine-2-carboxamide], `Cc1cccc2cc(CNC(=O)c3nccnc3N)c(N(C)CCN(C)C(=O)c3cnccn3)nc12` [Compound 78, 3-amino-N-{[8-methyl-2-(methyl{2-[methyl(pyrazin-2-ylcarbonyl)amino]ethyl}amino)quinolin-3-yl]methyl}pyrazine-2-carboxamide] is higher in IC50: < 0.05 µM for the first, 0.5 to 1.5 µM for the second. The first is the more potent here.

First: Cc1cccc2cc(CNC(=O)c3nccnc3N)c(CCCO)nc12 [Compound 50, 3-amino-N-{[2-(3-hydroxypropyl)-8-methylquinolin-3-yl]methyl}pyrazine-2-carboxamide]
Second: CNC(=O)CN(C)CCN(C)c1nc2c(C)cccc2cc1CNC(=O)c1nccnc1N [Compound 76, 3-amino-N-({8-methyl-2-[methyl(2-{methyl[2-(methylamino)-2-oxoethyl]amino}ethyl)amino]quinolin-3-yl}methyl)pyrazine-2-carboxamide]
The IC50 of the first is higher: 0.5 to 1.5 µM for the first, 0.05 to 0.25 µM for the second.

`Cc1cccc2cc(CNC(=O)c3nccnc3N)c(N(C)CCNC(=O)Cn3ccnn3)nc12` [Compound 51, 3-amino-N-{[8-methyl-2-(methyl{2-[(1H-1,2,3-triazol-1-ylacetyl)amino]ethyl}amino)quinolin-3-yl]methyl}pyrazine-2-carboxamide] and `Cc1cccc2cc(CNC(=O)c3nccnc3N)c(N(C)CCN(C)Cc3ccccn3)nc12` [Compound 68, 3-amino-N-{[8-methyl-2-(methyl{2-[methyl(pyridin-2-ylmethyl)amino]ethyl}amino)quinolin-3-yl]methyl}pyrazine-2-carboxamide] fall in the same range of IC50: 0.05 to 0.25 µM for the first, 0.05 to 0.25 µM for the second.

First: Cc1cccc2nc(CNC(=O)c3nccnc3N)c(-c3ccccc3CN(C)C)cc12 [Compound 52, 3-amino-N-[(3-{2-[(dimethylamino)methyl]phenyl}-5-methylquinolin-2-yl)methyl]pyrazine-2-carboxamide]
Second: CN(C)Cc1cccc(-c2cc3ccccc3nc2CNC(=O)c2nccnc2N)c1 [Compound 69, 3-amino-N-[(3-{3-[(dimethylamino)methyl]phenyl}quinolin-2-yl)methyl]pyrazine-2-carboxamide]
The IC50 of the first is lower: < 0.05 µM for the first, 0.25 to 0.5 µM for the second. The first is the more potent here.

`Cc1cccc2cc(CNC(=O)c3nccnc3N)c(N3CCCN(C(=O)Cn4cnc5ccccc54)CC3)nc12` [Compound 53, 3-amino-N-({2-[4-(1H-benzimidazol-1-ylacetyl)-1,4-diazepan-1-yl]-8-methylquinolin-3-yl}methyl)pyrazine-2-carboxamide] and `Cc1cccc2cc(CNC(=O)c3nccnc3N)c(N3CCCN(C(=O)Cn4ccnc4C)CC3)nc12` [Compound 55, 3-amino-N-[(8-methyl-2-{4-[(2-methyl-1H-imidazol-1-yl)acetyl]-1,4-diazepan-1-yl}quinolin-3-yl)methyl]pyrazine-2-carboxamide] fall in the same range of IC50: 0.5 to 1.5 µM for the first, 0.5 to 1.5 µM for the second.

`Cc1cccc2cc(CNC(=O)c3nccnc3N)c(N3CCCN(C(=O)Cn4ccnc4)CC3)nc12` [Compound 54, 3-amino-N-({2-[4-(1H-imidazol-1-ylacetyl)-1,4-diazepan-1-yl]-8-methylquinolin-3-yl}methyl)pyrazine-2-carboxamide] and `Cc1cccc2cc(CNC(=O)c3nccnc3N)c(N3CCCN(C(=O)Cn4nccn4)CC3)nc12` [Compound 61, 3-amino-N-({8-methyl-2-[4-(2H-1,2,3-triazol-2-ylacetyl)-1,4-diazepan-1-yl]quinolin-3-yl}methyl)pyrazine-2-carboxamide] fall in the same range of IC50: 0.5 to 1.5 µM for the first, 0.5 to 1.5 µM for the second.

Compared with `CN(C)C(=O)c1ccccc1-c1cc2ccccc2nc1CNC(=O)c1nccnc1N` [Compound 56, 3-amino-N-[(3-{2-[(dimethylamino)carbonyl]phenyl}quinolin-2-yl)methyl]pyrazine-2-carboxamide], `Nc1nccnc1C(=O)NCc1nc2ccccc2cc1-c1ccccc1CN1CCCCC1` [Compound 59, 3-amino-N-({3-[2-(piperidin-1-ylmethyl)phenyl]quinolin-2-yl}methyl)pyrazine-2-carboxamide] is lower in IC50: 0.25 to 0.5 µM for the first, 0.05 to 0.25 µM for the second.

First: Cc1cccc2cc(CNC(=O)c3nccnc3N)c(N3CCCN(Cc4cccn4C)CC3)nc12 [Compound 57, 3-amino-N-[(8-methyl-2-{4-[(1-methyl-1H-pyrrol-2-yl)methyl]-1,4-diazepan-1-yl}quinolin-3-yl)methyl]pyrazine-2-carboxamide]
Second: Cc1cccc2cc(CNC(=O)c3nccnc3N)c(N3CCCN(Cc4cncn4C)CC3)nc12 [Compound 63, 3-amino-N-[(8-methyl-2-{4-[(1-methyl-1H-imidazol-5-yl)methyl]-1,4-diazepan-1-yl}quinolin-3-yl)methyl]pyrazine-2-carboxamide]
The IC50 of the first is higher: 0.5 to 1.5 µM for the first, 0.05 to 0.25 µM for the second. The second is the more potent here.

`Cc1ccc(CN2CCCN(c3nc4c(C)cccc4cc3CNC(=O)c3nccnc3N)CC2)o1` [Compound 58, 3-amino-N-[(8-methyl-2-{4-[(5-methylfuran-2-yl)methyl]-1,4-diazepan-1-yl}quinolin-3-yl)methyl]pyrazine-2-carboxamide] and `Cc1cccc2cc(CNC(=O)c3nccnc3N)c(N3CCCN(Cc4ccncc4)CC3)nc12` [Compound 65, 3-amino-N-({8-methyl-2-[4-(pyridin-4-ylmethyl)-1,4-diazepan-1-yl]quinolin-3-yl}methyl)pyrazine-2-carboxamide] fall in the same range of IC50: 0.5 to 1.5 µM for the first, 0.5 to 1.5 µM for the second.

Compared with `Cc1cccc2cc(CNC(=O)c3nccnc3N)c(N3CCCN(Cc4nccn4C)CC3)nc12` [Compound 62, 3-amino-N-[(8-methyl-2-{4-[(1-methyl-1H-imidazol-2-yl)methyl]-1,4-diazepan-1-yl}quinolin-3-yl)methyl]pyrazine-2-carboxamide], `Cc1cccc2cc(CNC(=O)c3nccnc3N)c(N3CCCN(Cc4cccnc4)CC3)nc12` [Compound 64, 3-amino-N-({8-methyl-2-[4-(pyridin-3-ylmethyl)-1,4-diazepan-1-yl]quinolin-3-yl}methyl)pyrazine-2-carboxamide] is lower in IC50: 0.5 to 1.5 µM for the first, 0.25 to 0.5 µM for the second.

First: Cc1cccc2cc(CNC(=O)c3nccnc3N)c(N3CCCN(CC(=O)N(C)C)CC3)nc12 [Compound 66, 3-amino-N-[(2-{4-[2-(dimethylamino)-2-oxoethyl]-1,4-diazepan-1-yl}-8-methylquinolin-3-yl)methyl]pyrazine-2-carboxamide]
Second: Cc1cccc2cc(CNC(=O)c3nccnc3N)c(N(C)CCN(C)CC(=O)N3CCOCC3)nc12 [Compound 77, 3-amino-N-{[8-methyl-2-(methyl{2-[methyl(2-morpholin-4-yl-2-oxoethyl)amino]ethyl}amino)quinolin-3-yl]methyl}pyrazine-2-carboxamide]
The IC50 of the first is higher: 0.5 to 1.5 µM for the first, 0.05 to 0.25 µM for the second. The second is the more potent here.

`CCCN1CCC[C@@H]1C(=O)N(C)CCN(C)c1nc2c(C)cccc2cc1CNC(=O)c1nccnc1N` [Compound 67, 3-amino-N-{[8-methyl-2-(methyl{2-[methyl(1-propyl-D-prolyl)amino]ethyl}amino)quinolin-3-yl]methyl}pyrazine-2-carboxamide] and `Cc1cccc2cc(CNC(=O)c3nccnc3N)c(N(C)CCN(C)C(=O)[C@H]3CCCN3C(C)C)nc12` [Compound 73, 3-amino-N-({8-methyl-2-[methyl(2-{methyl[1-(1-methylethyl)-D-prolyl]amino}ethyl)amino]quinolin-3-yl}methyl)pyrazine-2-carboxamide] cannot be ordered by IC50: < 0.05 µM for the first, < 0.05 µM for the second.

First: Nc1nccnc1C(=O)NCc1nc2ccccc2cc1-c1ccccc1CN1CCOCC1 [Compound 70, 3-amino-N-({3-[2-(morpholin-4-ylmethyl)phenyl]quinolin-2-yl}methyl)pyrazine-2-carboxamide]
Second: Nc1nccnc1C(=O)NCc1nc2ccccc2cc1-c1cccc(CN2CCOCC2)c1 [Compound 72, 3-amino-N-({3-[3-(morpholin-4-ylmethyl)phenyl]quinolin-2-yl}methyl)pyrazine-2-carboxamide]
The IC50 of the first is lower: 0.25 to 0.5 µM for the first, 0.5 to 1.5 µM for the second.

First: Nc1nccnc1C(=O)NCc1nc2ccccc2cc1-c1ccc(CN2CCOCC2)cc1 [Compound 71, 3-amino-N-({3-[4-(morpholin-4-ylmethyl)phenyl]quinolin-2-yl}methyl)pyrazine-2-carboxamide]
Second: Cc1ccccc1-c1cc2ccccc2nc1C(C)NC(=O)c1nccnc1N (stereo not drawn) [Compound 75, 3-amino-N-{1-[3-(2-methylphenyl)quinolin-2-yl]ethyl}pyrazine-2-carboxamide]
The IC50 of the first is higher: 0.5 to 1.5 µM for the first, 0.25 to 0.5 µM for the second.

Compound `Cc1ccccc1-c1cc2ccccc2nc1CNC(=O)c1cnc(N)nc1` [Compound 74, 2-amino-N-{[3-(2-methylphenyl)quinolin-2-yl]methyl}pyrimidine-5-carboxamide] has an IC50 of 0.5 to 1.5 µM.
